Source: patent US9532970B2, “Compositions for anti-inflammatory, antioxidant effects and improved respiratory function by specific histone deacetylase inhibition” (priority 2014, dated 2017)
Read-outs that look alike come from different tables or passages of the source.

Key:
HDAC-7 = HDAC-7 (Homo sapiens, UniProt Q8WUI4); test: Binding to metal dependent histone deacetylase enzymes (epigenetic assay services)
HDAC8 = HDAC8 (Homo sapiens, UniProt Q9BY41); conditions: FIG. 2
[1] = system: peripheral blood mononuclear cells (PBMC)
[2] = system: ovalbumin (OVA)-induced AAD
Horse PBMC [3] = conditions: for Log2 Fold Change: LSF vs control
Horse PBMC [4] = system: Horse PBMC
[5] = 5 mg/kg intraperitoneally following each OVA nebulization, compared to ovalbumin-sensitized mice
[6] = three control vs three LSF treated samples

Chain of HDAC-7 (Q8WUI4 whole entry): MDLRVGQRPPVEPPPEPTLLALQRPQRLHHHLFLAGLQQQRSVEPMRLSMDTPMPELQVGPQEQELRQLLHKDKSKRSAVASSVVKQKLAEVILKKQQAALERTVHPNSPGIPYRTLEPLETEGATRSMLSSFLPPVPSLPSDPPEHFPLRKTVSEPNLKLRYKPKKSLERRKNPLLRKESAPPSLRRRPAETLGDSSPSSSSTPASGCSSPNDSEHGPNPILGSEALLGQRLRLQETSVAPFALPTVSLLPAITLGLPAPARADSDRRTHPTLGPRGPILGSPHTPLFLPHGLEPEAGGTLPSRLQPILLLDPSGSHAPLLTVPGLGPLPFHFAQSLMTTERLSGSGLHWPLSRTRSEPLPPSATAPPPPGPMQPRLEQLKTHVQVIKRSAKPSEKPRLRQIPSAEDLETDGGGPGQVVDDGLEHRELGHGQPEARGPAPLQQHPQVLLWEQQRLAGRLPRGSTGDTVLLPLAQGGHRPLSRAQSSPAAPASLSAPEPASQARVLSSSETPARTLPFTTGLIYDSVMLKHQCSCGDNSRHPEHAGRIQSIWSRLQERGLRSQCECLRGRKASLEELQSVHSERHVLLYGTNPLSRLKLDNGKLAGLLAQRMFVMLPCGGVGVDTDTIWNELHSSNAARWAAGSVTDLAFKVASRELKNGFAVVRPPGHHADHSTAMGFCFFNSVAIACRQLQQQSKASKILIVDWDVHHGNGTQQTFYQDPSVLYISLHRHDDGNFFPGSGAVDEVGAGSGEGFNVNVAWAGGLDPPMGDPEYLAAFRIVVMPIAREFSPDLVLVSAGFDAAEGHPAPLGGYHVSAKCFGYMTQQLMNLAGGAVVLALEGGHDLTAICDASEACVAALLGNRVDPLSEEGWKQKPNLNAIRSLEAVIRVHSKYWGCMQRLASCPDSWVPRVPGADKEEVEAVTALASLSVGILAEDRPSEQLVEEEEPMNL
Chain of HDAC8 (Q9BY41 whole entry): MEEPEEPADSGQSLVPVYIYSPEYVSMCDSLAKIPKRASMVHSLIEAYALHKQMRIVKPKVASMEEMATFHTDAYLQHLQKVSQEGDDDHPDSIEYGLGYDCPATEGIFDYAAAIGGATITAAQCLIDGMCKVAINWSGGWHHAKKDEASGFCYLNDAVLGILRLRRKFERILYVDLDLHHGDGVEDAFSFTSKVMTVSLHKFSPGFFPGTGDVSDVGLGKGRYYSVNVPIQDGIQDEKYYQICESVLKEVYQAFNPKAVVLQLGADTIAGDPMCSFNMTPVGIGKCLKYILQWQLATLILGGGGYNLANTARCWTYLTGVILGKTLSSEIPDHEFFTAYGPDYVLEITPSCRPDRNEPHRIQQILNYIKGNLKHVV

Which results are given for `C[S@@+]([O-])CCCCN=C=S` [LSF, (R)-1-Isothiocyanato-4-(methylsulfinyl)butane]?
HILLSLOPE (HDAC-7; HDAC-7): −0.41; IC50 (HDAC-7; HDAC-7): 5.81 mM; binding to HDAC 7 (in words) (HDAC-7; more subtle than Trichostatin A): specific binding; inhibition of the enzymatic activity of HDAC8 (HDAC8): inhibits; specificity of inhibition, HDAC8 compared to HDAC1 (HDAC8; HDAC1 and HDAC8 inhibitor Screening Assay Kits): specificity of L-sulforaphane for HDAC8 compared to HDAC1; reduction in chemokines and cytokines relative to Trichostatin A (TSA), SAHA and sodium butyrate (NaB) ([1]; 1 μM TSA, 10 μM SAHA, 10 mM NaB, 15 or 30 μM LSF): more pronounced effects; levels of TNF-α, IL-1β, IL-6, IL-8, MIP-1β and IP-10 in supernatants ([1]; 15 μM LSF or 30 μM LSF, FIG. 3): reduction; airway wall thickness [2, 5]: reductions; goblet cell hyperplasia [2, 5]: reductions; inflammation [2, 5]: reductions; Annexin V staining (apoptosis) in lung tissue ([2]; OVA-LSF 5 mg/kg, strong staining in OVA-VEH): Weak; Log2 Fold Change (Horse PBMC [3]; gene ABCA1): −4.37; Log2 Fold Change (Horse PBMC [3]; gene APOBEC3Z1B): −3.67; Log2 Fold Change (Horse PBMC [3]; gene ASPH): 1.93; Log2 Fold Change (Horse PBMC [3]; gene C2): −2.13; Log2 Fold Change (Horse PBMC [3]; gene CD180): −2.97; Log2 Fold Change (Horse PBMC [3]; gene CMKLR1): −3.79; Log2 Fold Change (Horse PBMC [3]; gene CSF3R): −3.76; Log2 Fold Change (Horse PBMC [3]; gene CXCL9): −2.55; Log2 Fold Change (Horse PBMC [3]; gene CYP1B1): −3.83; Log2 Fold Change (Horse PBMC [3]; gene DENND2A): 3.67; Log2 Fold Change (Horse PBMC [3]; gene FRMPD4): −3.80; Log2 Fold Change (Horse PBMC [3]; gene FTL): 1.51; Log2 Fold Change (Horse PBMC [3]; gene GSAP): 2.00; Log2 Fold Change (Horse PBMC [3]; gene IL8): 3.54; Log2 Fold Change (Horse PBMC [3]; gene KCNJ2): 2.06; Log2 Fold Change (Horse PBMC [3]; gene MAFB): −2.66; Log2 Fold Change (Horse PBMC [3]; gene ME1): 1.47; Log2 Fold Change (Horse PBMC [3]; gene MN-SOD): 1.93; Log2 Fold Change (Horse PBMC [3]; gene NR1H3): −2.56; Log2 Fold Change (Horse PBMC [3]; gene OSGIN2): 1.88; Log2 Fold Change (Horse PBMC [3]; gene PLEKHA4): −3.60; Log2 Fold Change (Horse PBMC [3]; gene PTPN12): 1.43; Log2 Fold Change (Horse PBMC [3]; gene RIPK2): 2.01; Log2 Fold Change (Horse PBMC [3]; gene RNASE6): −2.45; Log2 Fold Change (Horse PBMC [3]; gene SERPINB2): −4.65; Log2 Fold Change (Horse PBMC [3]; gene SLAMF8): −2.75; Log2 Fold Change (Horse PBMC [3]; gene SLC7A8): −3.35; Log2 Fold Change (Horse PBMC [3]; gene SLC7A11): 2.34; Log2 Fold Change (Horse PBMC [3]; gene SLC37A2): −2.72; Log2 Fold Change (Horse PBMC [3]; gene SORCS1): −2.71; Log2 Fold Change (Horse PBMC [3]; gene STAC2): 3.38; Log2 Fold Change (Horse PBMC [3]; gene STXBP5): 1.57; Log2 Fold Change (Horse PBMC [3]; gene TGM2): −3.99; Log2 Fold Change (Horse PBMC [3]; gene TNFSF15): 2.40; Log2 Fold Change (Horse PBMC [3]; gene TNS3): −3.09; Log2 Fold Change (Horse PBMC [3]; gene TUBA4A): 1.30; Log2 Fold Change (Horse PBMC [3]; gene TXN): 1.87; Log2 Fold Change (Horse PBMC [3]; gene TXNRD1): 2.13; Log2 Fold Change (Horse PBMC [3]; gene WDR59): 2.19; Log2 Fold Change (Horse PBMC [3]; gene ZFAND2A): 2.22; differentially expressed genes (number) (Horse PBMC [3]; [6]): 5951; down-regulated genes (number) (Horse PBMC [3]; [6]): 3012; up-regulated genes (number) (Horse PBMC [3]; [6]): 2939; NES (Horse PBMC [4]; ENCODE TF target set GM12878RAD21 (r27)): −3.95; NES (Horse PBMC [4]; ENCODE TF target set GM12878_RAD21 (r28)): −3.79; NES (Horse PBMC [4]; ENCODE TF target set GM12878_YY1): 3.41; NES (Horse PBMC [4]; ENCODE TF target set GM12878_ZBTB33 (r17)): 3.05; NES (Horse PBMC [4]; ENCODE TF target set GM12878_ZBTB33 (r21)): 2.89; NES (Horse PBMC [4]; ENCODE TF target set H1HESC_POL2 (r12)): 3.34; NES (Horse PBMC [4]; ENCODE TF target set H1HESC_POL2 (r13)): 3.33; NES (Horse PBMC [4]; ENCODE TF target set H1NEURONS_NRSF): 2.84; NES (Horse PBMC [4]; ENCODE TF target set HEPG2_GRP20_FORSKLN): 3.01; NES (Horse PBMC [4]; ENCODE TF target set HEPG2_ZBTB33 (r11)): 3.35; NES (Horse PBMC [4]; ENCODE TF target set HEPG2_ZBTB33 (r14)): 3.23; NES (Horse PBMC [4]; ENCODE TF target set K562_KAP1): 3.04; NES (Horse PBMC [4]; ENCODE TF target set K562_STAT1_IFNA6H): −4.54; NES (Horse PBMC [4]; ENCODE TF target set K562_STAT2_IFNA6H): −4.45; NES (Horse PBMC [4]; ENCODE TF target set K562_TR4UCD): 3.13; NES (Horse PBMC [4]; ENCODE TF target set K562_ZBTB33): 2.78; NES (Horse PBMC [4]; ENCODE TF target set MCF10AES_STAT3): −3.75; NES (Horse PBMC [4]; ENCODE TF target set SHSY5Y_GATA3): 3.13; NES (Horse PBMC [4]; ENCODE TF target set SKNMC_POL2): 2.91; NES (Horse PBMC [4]; ENCODE TF target set U2OS_SETDB1): 2.83; expression of CD markers, immunoglobulin containing genes and interleukins (Horse PBMC [4]; LSF vs control): strongly down-regulated; pathways related to interferon signalling, STAT1/2 targets and autoimmune/auto-inflammatory diseases (Horse PBMC [4]; LSF vs control): strongly downregulated; NES (Horse PBMC [4]; MSigDB gene set ATGTTAA, MIR-302C): 4.19; NES (Horse PBMC [4]; MSigDB gene set CHEN HOXA5 TARGETS 9HR UP): 4.3; NES (Horse PBMC [4]; MSigDB gene set CTTGTAT, MIR-381): 4.1
